Test results as given in ChEMBL document CHEMBL1147956 (Bioorg Med Chem Lett, 2007).

Biological target: T1, Inhibitor of nuclear factor kappa-B kinase subunit beta (Homo sapiens, UniProt O14920)
T1 sequence (O14920 whole entry): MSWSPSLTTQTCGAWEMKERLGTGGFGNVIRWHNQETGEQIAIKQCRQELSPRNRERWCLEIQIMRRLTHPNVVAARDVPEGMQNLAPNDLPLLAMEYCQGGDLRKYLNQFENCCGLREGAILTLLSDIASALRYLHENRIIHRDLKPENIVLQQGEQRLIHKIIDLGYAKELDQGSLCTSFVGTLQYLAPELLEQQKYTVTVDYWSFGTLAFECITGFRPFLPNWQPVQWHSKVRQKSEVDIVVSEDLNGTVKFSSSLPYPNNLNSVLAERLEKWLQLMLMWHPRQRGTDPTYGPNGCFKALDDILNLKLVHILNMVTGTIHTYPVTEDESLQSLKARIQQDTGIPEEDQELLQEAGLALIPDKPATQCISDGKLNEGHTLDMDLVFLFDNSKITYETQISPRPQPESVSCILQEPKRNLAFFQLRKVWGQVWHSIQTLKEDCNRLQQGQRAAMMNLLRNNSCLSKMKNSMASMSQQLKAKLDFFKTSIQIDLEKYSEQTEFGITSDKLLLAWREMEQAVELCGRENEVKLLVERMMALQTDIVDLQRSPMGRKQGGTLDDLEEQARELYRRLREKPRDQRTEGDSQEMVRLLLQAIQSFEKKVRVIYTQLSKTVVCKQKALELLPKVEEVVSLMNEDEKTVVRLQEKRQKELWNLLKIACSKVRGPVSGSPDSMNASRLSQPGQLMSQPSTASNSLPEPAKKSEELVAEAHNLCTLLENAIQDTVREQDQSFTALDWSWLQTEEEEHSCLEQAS
Test: Inhibition of IKK-beta after 30 mins

Compound: Cc1cc(-c2c3ccccc3c(Br)c3sc(C)c(C)c23)cc(C)c1O[C@H](Cc1ccccc1)C(=O)O [ERTIPROTAFIB]
- IC50: 400 nM
